From patent publication US8198307B2, “Imidazole derivatives having aryl piperidine substituent, method for preparation thereof and pharmaceutical compositions containing same” (Korea Research Institute of Chemical Technology, priority 2007, dated 2012)

biological target: T1, MCH R1 (melanine-concentrating hormone receptor-1) (Homo sapiens, UniProt Q99705); test: Inhibitory effects on MCH R1 binding (Eu-MCH time-resolved fluorescence binding assay); conditions: not given
T1 construct: purchased Euroscreen, Gosselies, Belgium
Description: First, MCH R1 (melanine-concentrating hormone receptor-1; Euroscreen, Gosselies, Belgium), 1 μM Europium-labeled melanine-concentrating hormone (Eu-MCH, PerkinElmer, Turku, Finland) and 1 mM melanine-concentrating hormone (MCH, #070-47, Phoenix, Belmont Calif., USA) were kept at 4° C. for ready use. 1 μM Eu-MCH and 1 mM MCH were diluted with an experimental solution (25 mM HEPES pH 7.4, 5 mM MgCl2, 1 mM CaCl2 and 0.5% (w/w) BSA) to 8 nM (final reaction concentration: 2 nM) and 2 μM (final reaction concentration: 0.5 μM), respectively. The compounds prepared in the Examples (“Test compounds”) were dissolved in the experimental solution in concentration of 4 nM to 40 μM (final reaction concentration: 1 nM to 10 μM). MCH R1 (200 assays/vial) was homogeneously dispersed in the experimental solution.
Then, 100 μl/well of the following reaction mixture was added to the wells of a microplate (Multiwell 96 well filter plates PN5020, Pall Co., Ann Arbor, Mich., USA) equipped with a filter paper, with an 8-channel pipette (multi 8-channel, Eppendorf, Hamburg, Germany). Specifically, to the wells of a non-specific binding control group, 25 μl of Eu-MCH, 50 μl of MCH R1 and 25 μl of MCH were added. Further, 25 μl of the experimental solution supplemented with 10% (w/w) of DMSO, 25 μl of Eu-MCH and 50 μl of MCH R1 were added to the wells of a total binding control group, while 25 μl of the test compounds, 25 μl Eu-MCH and 50 μl of MCH R1 were added to the wells of an experimental group. Subsequently, the microplate was shaken gently for 15 seconds and kept at room temperature for 90 minutes to allow the reaction to take place. Then, the plate was washed with a microplate washer (EMBLA, Molecular Devices) by washing three times with 300 μl of a washing solution (25 mM HEPES pH 7.4, 5 mM MgCl2, 1 mM CaCl2) to remove the residual unreacted Eu-MCH. Moisture was removed from the bottom of the wells and 150 μl of dissociation solution (DELFIA Enhancement solution, PerkinElmer, Turku, Finland) was added to each well, followed by keeping the plate at room temperature for 2 to 4 hours. Subsequently, time-resolved fluorescence (TRF) values were measured with a multilabel counter (Victor2, PerkinElmer, Turku, Finland) (emission wave length: 615 nm, excitation wave length: 340 nm). The inhibition rate based on the time-resolved fluorescence data was calculated using the following Equation (I). Inhibition rate of time-resolved fluorescence (%)=[(Average TRF value of the total binding group−Time-resolved fluorescence value of the test compound)/(Average TRF value of the total binding group−Average TRF value of the non-specific binding group)]×100 (I)

T1 sequence (Q99705 whole entry, species assumed): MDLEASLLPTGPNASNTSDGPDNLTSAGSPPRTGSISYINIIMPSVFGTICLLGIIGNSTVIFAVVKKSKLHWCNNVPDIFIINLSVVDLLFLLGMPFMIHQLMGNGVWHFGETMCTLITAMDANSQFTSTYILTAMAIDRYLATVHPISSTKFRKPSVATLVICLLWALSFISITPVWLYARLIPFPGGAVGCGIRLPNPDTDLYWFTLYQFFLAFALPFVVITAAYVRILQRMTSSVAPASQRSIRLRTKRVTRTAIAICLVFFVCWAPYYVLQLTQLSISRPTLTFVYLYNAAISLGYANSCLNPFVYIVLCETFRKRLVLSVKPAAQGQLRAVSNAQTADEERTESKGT

Structure (SMILES)	IC50
CC(=O)Nc1cccc(C2CCN(CCCn3c(-c4ccc(Cl)cc4)nc4cc([N+](=O)[O-])ccc43)CC2)c1 [Example 85, 2-(4-chlorophenyl)-1-{3-[4-(3-acetylaminophenyl)piperidin-1-yl]propyl}-5-nitro-1H-benzimidazole]	70 nM

same assay, conditions: concentration inhibiting the binding of MCH (Eu-MCH, 2 nM) to MCH R1 by 50% in vitro; TRF readout; test range 1 nM to 10 μM; read-out: IC50

IC50	Structure (SMILES)
3 nM	CCCCc1nc2cc(Br)c(C)nc2n1CCCN1CCC(c2cccc(NC(C)=O)c2)CC1 [Example 94, 6-bromo-2-butyl-5-methyl-3-{3-[4-(3-acetylaminophenyl)piperidin-1-yl]propyl}-3H-imidazo[4,5-b]pyridine]
3 nM	CC(=O)Nc1cccc(C2CCN(CCCn3c(-c4ccccc4)nc4ccc(Br)cc43)CC2)c1 [Example 43, 2-phenyl-1-{3-[4-(3-acetylaminophenyl)piperidin-1-yl]propyl}-6-bromo-1H-benzimidazole]
3 nM	CC(=O)Nc1cccc(C2CCN(CCCn3c(-c4ccc(C(F)(F)F)cc4)nc4ccccc43)CC2)c1 [Example 45, 2-(4-trifluoromethylphenyl)-1-{3-[4-(3-acetylaminophenyl)piperidin-1-yl]propyl}-1H-benzimidazole]
197 nM	CC(=O)Nc1cccc(C2CCN(CCCn3c(-c4ccc(Cl)cc4)nc4cc(C)cc(C)c43)CC2)c1 [Example 49, 2-(4-chlorophenyl)-1-{3-[4-(3-acetylaminophenyl)piperidin-1-yl]propyl}-5,7-dimethyl-1H-benzimidazole]
200 nM	CC(=O)Nc1cccc(C2CCN(CCCn3c(-c4ccc(Cl)cc4)nc4cc(C)c(C)cc43)CC2)c1 [Example 22, 2-(4-chlorophenyl)-1-{3-[4-(3-acetylaminophenyl)piperidin-1-yl]propyl}-5,6-dimethyl-1H-benzimidazole]
40 nM	CCCCc1nc2cc(-c3ccccn3)c(C)nc2n1CCCN1CCC(c2cccc(NC(=O)C(C)C)c2)CC1 [Example 101, 2-butyl-5-methyl-6-pyridin-2-yl-3-{3-[4-(3-isobutyrylaminophenyl)piperidin-1-yl]propyl}-3H-imidazo[4,5-b]pyridine]
8 nM	CC(=O)Nc1cccc(C2CCN(CCCn3c(-c4cccc(F)c4)nc4ccc(Cl)cc43)CC2)c1 [Example 34, 2-(3-fluorophenyl)-1-{3-[4-(3-acetylaminophenyl)piperidin-1-yl]propyl}-6-chloro-1H-benzimidazole]
10 nM	CC(=O)Nc1cccc(C2CCN(CCCn3c(-c4ccccc4)nc4ccc([N+](=O)[O-])cc43)CC2)c1 [Example 32, 2-phenyl-1-{3-[4-(3-acetylaminophenyl)piperidin-1-yl]propyl}-6-nitro-1H-benzimidazole]
16 nM	CC(=O)Nc1cccc(C2CCN(CCCn3c(-c4ccccc4)nc4ccc(C)cc43)CC2)c1 [Example 23, 2-phenyl-1-{3-[4-(3-acetylaminophenyl)piperidin-1-yl]propyl}-6-methyl-1H-benzimidazole]
98 nM	CCc1nc2cc(Br)c(C)nc2n1CCCN1CCC(c2cccc(NC(C)=O)c2)CC1 [Example 93, 6-bromo-2-ethyl-5-methyl-3-{3-[4-(3-acetylaminophenyl)piperidin-1-yl]propyl}-3H-imidazo[4,5-b]pyridine]
70 nM	COc1ccc(Cl)cc1-c1nc2cc(C)c(C)cc2n1CCCN1CCC(c2cccc(NC(C)=O)c2)CC1 [Example 87, 2-(5-chloro-2-methoxyphenyl)-1-{3-[4-(3-acetylaminophenyl)piperidin-1-yl]propyl}-5,6-dimethyl-1H-benzimidazole]
10 nM	CC(=O)Nc1cccc(C2CCN(CCCn3c(-c4ccccc4)nc4ccc(Cl)cc43)CC2)c1 [Example 29, 2-phenyl-1-{3-[4-(3-acetylaminophenyl)piperidin-1-yl]propyl}-6-chloro-1H-benzimidazole]
70 nM	CC(=O)Nc1cccc(C2CCN(CCCn3c(-c4ccc(Cl)cc4)nc4cc(F)ccc43)CC2)c1 [Example 83, 2-(4-chlorophenyl)-1-{3-[4-(3-acetylaminophenyl)piperidin-1-yl]propyl}-5-fluoro-1H-benzimidazole]
